Laboratory results published in PubChem BioAssay AID328 (DTP/NCI, 2004).
Several values for one entry are separate records, joined by “and”; a condition that tells them apart may be missing. Equal values may be shown once. Toxic doses and inconclusive results are not listed. How the source made its calls: active means survival T/C of 150% or more; inactive means T/C below 125% in these data. Residues, ends and D or L forms follow the SMILES beside them.

Test system: BDF1 mice, P388 leukemia ip, median survival T/C
Test: NCI In Vivo Anticancer Drug Screen. Data for tumor model P388 Leukemia (intraperitoneal) in B6D2F1 (BDF1) mice
Conditions: endpoint: median survival time, higher = longer survival
Outline: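 Antitumour effect was judged in vivo: survival in drug-treated mice, normalised to that of vehicle-dosed controls, gives the reported T/C.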

[1] = dose: 100.0 mg/kg/injection, schedule: Q01DX009 (ip), vehicle: saline with Tween-80
[2] = dose: 200.0 mg/kg/injection, schedule: Q01DX009 (ip), vehicle: saline with Tween-80
[3] = dose: 6.25 mg/kg/injection, schedule: Q01DX009 (ip), vehicle: saline
[4] = dose: 12.5 mg/kg/injection, schedule: Q01DX009 (ip), vehicle: saline
[5] = dose: 12.5 mg/kg/injection, schedule: Q04DX003 (ip), vehicle: saline
[6] = dose: 50.0 mg/kg/injection, schedule: Q01DX009 (ip), vehicle: saline with Tween-80
[7] = dose: 50.0 mg/kg/injection, schedule: Q04DX003 (ip), vehicle: saline
[8] = dose: 100.0 mg/kg/injection, schedule: Q04DX003 (ip), vehicle: saline
[9] = dose: 100.0 mg/kg/injection, schedule: Q04DX003 (ip), vehicle: saline with Tween-80
[10] = dose: 200.0 mg/kg/injection, schedule: Q04DX003 (ip), vehicle: saline with Tween-80
[11] = dose: 400.0 mg/kg/injection, schedule: Q04DX003 (ip), vehicle: saline with Tween-80
[12] = dose: 400.0 mg/kg/injection, schedule: Q01DX009 (ip), vehicle: saline with Tween-80
[13] = dose: 25.0 mg/kg/injection, schedule: Q01DX009 (ip), vehicle: saline with Tween-80
[14] = dose: 25.0 mg/kg/injection, schedule: Q04DX003 (ip), vehicle: saline

Measured: T/C

NCCCCC(N)C(=O)NC(CCCN=C(N)N)C(=O)O (stereo not drawn) (H-Lys-Arg-OH; configuration not given here)
inactive: dose: 3.12 mg/kg/injection, schedule: Q01DX009 (ip), vehicle: water 101 % of control | dose: 6.25 mg/kg/injection, schedule: Q01DX009 (ip), vehicle: water 97 % of control and 99 % of control and 117 % of control | dose: 12.5 mg/kg/injection, schedule: Q01DX009 (ip), vehicle: water 105 % of control and 109 % of control | dose: 25.0 mg/kg/injection, schedule: Q01DX009 (ip), vehicle: water 101 % of control and 104 % of control and 118 % of control | dose: 50.0 mg/kg/injection, schedule: Q01DX009 (ip), vehicle: water 93 % of control and 94 % of control and 95 % of control | dose: 100.0 mg/kg/injection, schedule: Q01DX009 (ip), vehicle: water 90 % of control and 100 % of control and 113 % of control | dose: 200.0 mg/kg/injection, schedule: Q01DX009 (ip), vehicle: water 109 % of control

CN(C)c1ccc2cc3ccc(N(C)C)cc3nc2c1
inactive: dose: 3.12 mg/kg/injection, schedule: Q04DX003 (ip), vehicle: water 93 % of control | dose: 6.25 mg/kg/injection, schedule: Q04DX003 (ip), vehicle: water 106 % of control | dose: 12.5 mg/kg/injection, schedule: Q04DX003 (ip), vehicle: water 99 % of control | dose: 25.0 mg/kg/injection, schedule: Q04DX003 (ip), vehicle: water 109 % of control | dose: 50.0 mg/kg/injection, schedule: Q04DX003 (ip), vehicle: water 115 % of control

CCCC(=O)NO
inactive: dose: 100.0 mg/kg/injection, schedule: Q01DX009 (ip), vehicle: saline sonified 100 % of control | dose: 200.0 mg/kg/injection, schedule: Q01DX009 (ip), vehicle: saline sonified 100 % of control | dose: 400.0 mg/kg/injection, schedule: Q01DX009 (ip), vehicle: saline sonified 100 % of control

CSC(=O)OCC1=CC2OC(=O)C3=COC(OC4OC(CO)C(O)C(O)C4O)C1C32 (stereo unspecified)
inactive: dose: 2.0 mg/kg/injection, schedule: Q01DX009 (ip), vehicle: saline with Tween-80 101 % of control | dose: 4.0 mg/kg/injection, schedule: Q01DX009 (ip), vehicle: saline with Tween-80 101 % of control | dose: 16.0 mg/kg/injection, schedule: Q01DX009 (ip), vehicle: saline with Tween-80 111 % of control

Cc1cc(C)c(C)c(C(O)(C(=O)O)c2ccccc2)c1 (stereo unspecified)
inactive: [1] 87 % of control | [2] 104 % of control

CCCCCC[P+](c1ccccc1)(c1ccccc1)c1ccccc1
inactive: [3] 114 % of control | dose: 6.25 mg/kg/injection, schedule: Q04DX003 (ip), vehicle: saline 109 % of control | [4] 92 % of control | [5] 104 % of control

CC1(C)CC2(C)OC2C2(C1)N=NC(=O)O2 (stereo unspecified)
inactive: [6] 98 % of control | [1] 107 % of control | [2] 121 % of control

Nc1ncns1
inactive: [7] 101 % of control | [8] 120 % of control

Cc1cc(NC(=O)c2ccc(Cl)cc2)ccc1Cl
inactive: dose: 100.0 mg/kg/injection, schedule: Q01DX001 (ip), vehicle: saline with Tween-80 100 % of control | dose: 200.0 mg/kg/injection, schedule: Q01DX001 (ip), vehicle: saline with Tween-80 86 % of control | dose: 400.0 mg/kg/injection, schedule: Q01DX001 (ip), vehicle: saline with Tween-80 95 % of control

CC1(C2CC(=O)c3c(O)ccc(O)c3C2)OCCO1 (stereo unspecified)
inactive: dose: 25.0 mg/kg/injection, schedule: Q01DX009 (ip), vehicle: other 107 % of control | dose: 50.0 mg/kg/injection, schedule: Q01DX009 (ip), vehicle: other 100 % of control | dose: 100.0 mg/kg/injection, schedule: Q01DX009 (ip), vehicle: other 98 % of control | dose: 200.0 mg/kg/injection, schedule: Q01DX009 (ip), vehicle: other 98 % of control | dose: 400.0 mg/kg/injection, schedule: Q01DX009 (ip), vehicle: other 116 % of control

O=C(Nc1ccccc1)Nn1cnc2ccccc2c1=O
inactive: [9] 90 % of control | [10] 100 % of control | [11] 100 % of control

CCOC(=O)C(Cc1ccc(N(CCCl)CCCl)cc1)NC=O (stereo unspecified)
active: dose: 66.0 mg/kg/injection, schedule: Q04DX003 (ip), vehicle: saline with Tween-80 181 % of control | [9] 200 % of control and 209 % of control | dose: 150.0 mg/kg/injection, schedule: Q04DX003 (ip), vehicle: saline with Tween-80 268 % of control and 272 % of control
inactive: dose: 375.0 micrograms/kg/injection, schedule: Q04DX003 (ip), vehicle: saline with Tween-80 110 % of control | dose: 750.0 micrograms/kg/injection, schedule: Q04DX003 (ip), vehicle: saline with Tween-80 120 % of control

CC(=O)OCc1cc2ccccc2nc1C
inactive: [9] 100 % of control | [2] 95 % of control | [10] 104 % of control | [12] 95 % of control | [11] 100 % of control

CC(C)CCCC(C)C1CCC2C3CC=C4CC(OP(=O)(N5CC5)N5CC5)CCC4(C)C3CCC12C (stereo unspecified)
inactive: [13] 98 % of control | [6] 100 % of control | [1] 117 % of control | [2] 110 % of control

Cc1ccc(Nc2nc(N)nc(CNc3ccc(Cl)cc3)n2)cc1
inactive: dose: 100.0 mg/kg/injection, schedule: Q04DX003 (ip), vehicle: saline sonified 110 % of control | dose: 200.0 mg/kg/injection, schedule: Q04DX003 (ip), vehicle: saline sonified 100 % of control | dose: 400.0 mg/kg/injection, schedule: Q04DX003 (ip), vehicle: saline sonified 100 % of control

O=C1CC(c2ccccc2)=NO1
inactive: [13] 96 % of control | [6] 91 % of control | [1] 101 % of control | [2] 107 % of control

O=C(SCO)c1ccccc1
inactive: dose: 100.0 mg/kg/injection, schedule: Q04DX003 (sc), vehicle: olive oil, sesame oil, peanut oil 100 % of control | dose: 200.0 mg/kg/injection, schedule: Q04DX003 (sc), vehicle: olive oil, sesame oil, peanut oil 110 % of control | dose: 400.0 mg/kg/injection, schedule: Q04DX003 (sc), vehicle: olive oil, sesame oil, peanut oil 100 % of control

COC(=O)c1ccc(COc2ccc([N+](=O)[O-])cc2Cl)cc1
inactive: dose: 44.0 mg/kg/injection, schedule: Q01DX009 (ip), vehicle: saline with Tween-80 90 % of control | dose: 66.0 mg/kg/injection, schedule: Q01DX009 (ip), vehicle: saline with Tween-80 90 % of control | [1] 90 % of control | dose: 150.0 mg/kg/injection, schedule: Q01DX009 (ip), vehicle: saline with Tween-80 86 % of control | dose: 176.0 mg/kg/injection, schedule: Q04DX003 (ip), vehicle: saline with Tween-80 100 % of control | [2] 115 % of control | dose: 264.0 mg/kg/injection, schedule: Q04DX003 (ip), vehicle: saline with Tween-80 100 % of control | [12] 105 % of control | [11] 90 % of control

Cc1ccc2oc3ccccc3c(=O)c2c1
inactive: dose: 50.0 mg/kg/injection, schedule: Q01DX001 (ip), vehicle: saline sonified 95 % of control | dose: 100.0 mg/kg/injection, schedule: Q01DX001 (ip), vehicle: saline sonified 95 % of control | dose: 200.0 mg/kg/injection, schedule: Q01DX001 (ip), vehicle: saline sonified 95 % of control

O=C(O)c1ccc(=O)oc1
inactive: dose: 12.5 mg/kg/injection, schedule: Q01DX009 (ip), vehicle: saline with Tween-80 108 % of control | [13] 99 % of control and 100 % of control | [6] 108 % of control | [1] 124 % of control | [2] 124 % of control

c1ccc(-c2ncc3cnccn23)cc1
inactive: dose: 3.12 mg/kg/injection, schedule: Q01DX009 (ip), vehicle: saline 100 % of control | [3] 100 % of control | [4] 100 % of control | [5] 114 % of control | [14] 116 % of control | dose: 50.0 mg/kg/injection, schedule: Q01DX009 (ip), vehicle: saline 88 % of control | [7] 105 % of control | [8] 107 % of control

CCOC(=O)NP(=O)(N1CC1)N1CC1
active: dose: 11.0 mg/kg/injection, schedule: Q04DX003 (ip), vehicle: saline 272 % of control | [14] 225 % of control | dose: 33.0 mg/kg/injection, schedule: Q04DX003 (ip), vehicle: saline 333 % of control and 220 % of control | [7] 300 % of control and 172 % of control and 195 % of control
inactive: dose: 2.1 mg/kg/injection, schedule: Q04DX003 (ip), vehicle: saline 105 % of control | dose: 3.1 mg/kg/injection, schedule: Q04DX003 (ip), vehicle: saline 110 % of control | dose: 75.0 mg/kg/injection, schedule: Q04DX003 (ip), vehicle: saline 88 % of control and 95 % of control
